Experimental data reported in the CheMixHub viscosity set.
± gives the uncertainty stated by the source.

Assay: xn = mol fraction of the nth substance listed

O=S=O + CCCCN(CCCC)CCCC
303.15 K, 100 kPa
Conditions	viscosity [mPa·s]
x1 = 0.21	1.4
x1 = 0.35	3.2
x1 = 0.45	12.9

O=C1CCCN1 + OCCCO
308.15 K, 101 kPa
Conditions	viscosity [mPa·s]
x1 = 0.1929	22.6 ± 1
x1 = 0.3918	17.83 ± 0.82
x1 = 0.4915	15.95 ± 0.74
x1 = 0.5918	14.51 ± 0.68
x1 = 0.6929	12.9 ± 0.61
x1 = 0.897	10.06 ± 0.49

O=S=O + CCOC(C)=O
298.15 K, 101 kPa
Conditions	viscosity [mPa·s]
x1 = 0.115	0.4299 ± 0.011
x1 = 0.236	0.4289 ± 0.011
x1 = 0.35	0.4239 ± 0.011

O=S=O + ClC(Cl)(Cl)Cl
298.15 K, 101 kPa
Conditions	viscosity [mPa·s]
x1 = 0.00784	0.8572 ± 0.022
x1 = 0.0163	0.841 ± 0.022
x1 = 0.0185	0.8352 ± 0.022
x1 = 0.0267	0.82 ± 0.021

Cc1cc(C)cc(C)c1 + CO
293.15 K, 101 kPa
Conditions	viscosity [mPa·s]
x2 = 0.2	0.696 ± 0.014
x2 = 0.4	0.699 ± 0.014
x2 = 0.5	0.715 ± 0.014
x2 = 0.6	0.721 ± 0.014
x2 = 0.8	0.683 ± 0.014

Cc1cc(C)cc(C)c1 + C1CCCCC1
viscosity [mPa·s], 101 kPa
Conditions	303 K	303.15 K	308.15 K	313 K	313.15 K	318.15 K	323 K	323.15 K
x1 = 0.1001	–	0.7294 ± 0.0076	0.6779 ± 0.0073	–	0.6321 ± 0.0071	0.591 ± 0.0069	–	0.5529 ± 0.0067
x1 = 0.1028	0.7231 ± 0.0051	–	–	0.6296 ± 0.0045	–	–	0.5473 ± 0.004	–
x1 = 0.2001	–	0.6775 ± 0.0073	0.6326 ± 0.0071	–	0.5925 ± 0.0069	0.5562 ± 0.0067	–	0.5229 ± 0.0066
x1 = 0.2002	0.6616 ± 0.0048	–	–	0.5833 ± 0.0043	–	–	0.518 ± 0.0039	–
x1 = 0.299	0.6393 ± 0.0047	–	–	0.5651 ± 0.0042	–	–	0.5048 ± 0.0039	–
x1 = 0.3	–	0.6444 ± 0.0072	0.6039 ± 0.0069	–	0.5675 ± 0.0068	0.5341 ± 0.0066	–	0.5036 ± 0.0065
x1 = 0.396	0.6187 ± 0.0047	–	–	0.5553 ± 0.0042	–	–	0.4899 ± 0.0038	–
x1 = 0.4	–	0.6263 ± 0.0071	0.5881 ± 0.0069	–	0.5539 ± 0.0067	0.5231 ± 0.0066	–	0.4941 ± 0.0064
x1 = 0.4961	0.6085 ± 0.0047	–	–	0.5439 ± 0.0042	–	–	0.4892 ± 0.0039	–
x1 = 0.5	–	0.6163 ± 0.007	0.5791 ± 0.0068	–	0.5465 ± 0.0067	0.5165 ± 0.0065	–	0.4886 ± 0.0064
x1 = 0.5971	0.6054 ± 0.0047	–	–	0.54 ± 0.0043	–	–	0.4863 ± 0.0039	–
x1 = 0.6	–	0.6104 ± 0.007	0.5748 ± 0.0068	–	0.5431 ± 0.0066	0.5143 ± 0.0065	–	0.4873 ± 0.0064
x1 = 0.699	0.6015 ± 0.0048	–	–	0.5379 ± 0.0043	–	–	0.4853 ± 0.004	–
x1 = 0.7	–	0.6099 ± 0.007	0.5746 ± 0.0068	–	0.5428 ± 0.0066	0.514 ± 0.0065	–	0.4871 ± 0.0064
x1 = 0.7992	0.6055 ± 0.0049	–	–	0.543 ± 0.0044	–	–	0.4858 ± 0.004	–
x1 = 0.8001	–	0.6119 ± 0.007	0.5767 ± 0.0068	–	0.5451 ± 0.0067	0.5165 ± 0.0065	–	0.4904 ± 0.0064
x1 = 0.8983	0.6081 ± 0.005	–	–	0.543 ± 0.0045	–	–	0.4893 ± 0.0041	–
x1 = 0.9	–	0.6162 ± 0.007	0.5819 ± 0.0068	–	0.551 ± 0.0067	0.5223 ± 0.0066	–	0.494 ± 0.0064

CCCCCCCC/C=C\CCCCCCCC(=O)O + CN1CCC[C@H]1c1cccnc1
viscosity [mPa·s], 101 kPa
Conditions	298.15 K	323.15 K
x2 = 0.1049	74.27 ± 1.1	22.13 ± 0.36
x2 = 0.1989	107 ± 2.2	29.28 ± 1.5
x2 = 0.2016	108 ± 2.2	29.56 ± 1.6
x2 = 0.2132	110.3 ± 2.3	30.03 ± 0.54
x2 = 0.2175	110.4 ± 2.3	30.15 ± 0.54
x2 = 0.2346	112.3 ± 2.4	30.48 ± 0.53
x2 = 0.2482	110.3 ± 2.3	30.13 ± 0.52
x2 = 0.2489	110 ± 2.3	30.12 ± 0.52
x2 = 0.2601	109.3 ± 2.3	30.1 ± 0.52
x2 = 0.2826	105.3 ± 2.1	28.77 ± 0.5
x2 = 0.298	102.5 ± 2	28.02 ± 0.6
x2 = 0.4102	73.48 ± 1.1	22.19 ± 0.36
x2 = 0.4841	51.84 ± 0.61	17.6 ± 0.27
x2 = 0.5948	34.19 ± 0.43	12.35 ± 0.18
x2 = 0.7031	20.12 ± 0.26	8.136 ± 0.12
x2 = 0.7939	11.7 ± 0.15	5.197 ± 0.073
x2 = 0.8975	7.276 ± 0.093	3.432 ± 0.047

O=S=O + CCOCC
298.15 K, 101 kPa
Conditions	viscosity [mPa·s]
x1 = 0.0574	0.2303 ± 0.0062
x1 = 0.0951	0.2353 ± 0.0063
x1 = 0.1329	0.24 ± 0.0064
x1 = 0.1607	0.2443 ± 0.0065

OCCCCO + C[N+](C)(C)CCO.[Cl-]
viscosity [mPa·s]
Conditions	293.15 K	298.15 K	298.2 K	303.15 K	308.15 K	308.2 K	313.15 K	318.15 K	318.2 K	323.15 K
101 kPa, x2 = 0.2	–	70.2 ± 2.9	–	–	–	–	–	32.3 ± 1.3	–	–
101.3 kPa, x1 = 0.7519	112.9 ± 5.4	87.4 ± 3.9	–	70.16 ± 2.9	59.73 ± 2.4	–	47.89 ± 2	39.53 ± 1.6	–	33.04 ± 1.4
101.3 kPa, x1 = 0.8	99.69 ± 4.6	78.77 ± 3.4	–	62.96 ± 2.6	51.08 ± 2.1	–	41.67 ± 1.7	34.51 ± 1.4	–	28.9 ± 1.2
101.3 kPa, x1 = 0.8334	93.6 ± 4.2	74.9 ± 3.2	–	59.28 ± 2.4	48 ± 2	–	39.41 ± 1.6	32.5 ± 1.3	–	27.36 ± 1.1
101.3 kPa, x1 = 0.8575	91.44 ± 4.1	72.28 ± 3	–	57.86 ± 2.4	46.72 ± 1.9	–	38.31 ± 1.6	31.67 ± 1.3	–	26.47 ± 1.1
101.3 kPa, x2 = 0.1672	–	–	75.5 ± 3.1	–	–	58.2 ± 2.4	–	–	42.8 ± 1.7	–
101.3 kPa, x2 = 0.2	–	–	–	54.75 ± 1.1	44.49 ± 1.1	–	36.66 ± 1	30.4 ± 0.74	–	25.74 ± 0.72
101.3 kPa, x2 = 0.25	–	–	–	60.64 ± 1.5	49.3 ± 1.3	–	40.55 ± 1	33.94 ± 0.73	–	28.53 ± 0.7

O=P([O-])([O-])O.[Na+].[Na+] + O
viscosity [mPa·s]
Conditions	293.15 K	298.15 K	303.15 K	308.15 K
100 kPa, x1 = 0.01115	–	1.215 ± 0.24	1.095 ± 0.22	–
100 kPa, x1 = 0.01333	1.455 ± 0.29	–	–	–
100 kPa, x1 = 0.01698	–	–	–	1.175 ± 0.24
101 kPa, x1 = 0.0018	–	0.948 ± 0.0084	0.8587 ± 0.0079	0.7663 ± 0.0074
101 kPa, x1 = 0.0054	–	1.05 ± 0.0094	0.968 ± 0.0087	0.8559 ± 0.0083
101 kPa, x1 = 0.0089	–	1.232 ± 0.012	1.076 ± 0.01	0.94 ± 0.0085
101 kPa, x1 = 0.012	–	1.441 ± 0.015	1.228 ± 0.011	1.152 ± 0.0093
101 kPa, x1 = 0.016	–	1.727 ± 0.015	1.536 ± 0.013	1.452 ± 0.012

OCCC1CCCCN1 (stereo not drawn) + O
viscosity [mPa·s], 101.3 kPa
Conditions	x1 = 0.0153	x1 = 0.0564	x1 = 0.102	x1 = 0.173	x1 = 0.295
298.15 K	1.426 ± 0.022	3.959 ± 0.058	9.631 ± 0.12	24.9 ± 0.31	89.03 ± 2.3
313.15 K	1.025 ± 0.016	2.371 ± 0.035	5.15 ± 0.074	11.33 ± 0.14	35.53 ± 0.41
